Laboratory results taken from ChEMBL document CHEMBL4138233, “Purine analogs targeting the guanine riboswitch as potential antibiotics against Clostridioides difficile” (Eur J Med Chem, 2018).
≈ marks a conversion by molar mass, not a printed value. Calls of active or inactive are those of the source. No cut-off for these calls is given here.

target: not listed separately; test: Binding affinity to Clostridium difficile [5'-32P]guaA riboswitch by polyacrylamide gel electrophoresis method; set-up: species or system Clostridioides difficile

Compound | Kd [µM]
O=c1[nH]c(NC2CCCCC2)nc2[nH]cnc12 | 6.5
Nc1nc2scnc2c(=O)[nH]1 | 7.4
COc1ccc(CNc2nc(N)nc3[nH]cnc23)cc1 | 71.3
O=c1[nH]c(NCc2ccccn2)nc2[nH]cnc12 | 24.4
NCCCNc1nc(N)nc2[nH]cnc12 | 0.32
Nc1nc(NCc2ccc(F)cc2)c2nc[nH]c2n1 | 25.2
Nc1nc(NC2CCC2)c2nc[nH]c2n1 | > 1000
CN(C)CCNC(=O)Nc1nc2[nH]cnc2c(=O)[nH]1 | 2.06
Nc1nc2ncsc2c(=O)[nH]1 | > 1000
O=C(O)CCCC(=O)Nc1nc2[nH]cnc2c(=O)[nH]1 | 0.45
CNc1nc2[nH]cnc2c(=O)[nH]1 | > 1000
COCCCNc1nc2[nH]cnc2c(=O)[nH]1 | 2.2
CNC(=O)Nc1nc2[nH]cnc2c(=O)[nH]1 | > 1000
O=c1[nH]c(NC2CCC2)nc2[nH]cnc12 | 2.4
O=C(NCCO)Nc1nc2[nH]cnc2c(=O)[nH]1 | 2.67
Nc1nc2nnccc2c(=O)[nH]1 | > 1000
NC(=O)Nc1nc2[nH]cnc2c(=O)[nH]1 | 21
Cn1cnc2c(O)nc(N)nc21 [9-Methylguanine] | 8.1
Nc1nc(NCc2ccccc2)c2[nH]cnc2n1 | 0.93
Nc1nc(NCCCO)c2nc[nH]c2n1 | 0.63
O=C(NCCN1CCOCC1)Nc1nc2[nH]cnc2c(=O)[nH]1 | 27.6

Compound | Kd [µM]
Nc1nc(NC2CC2)c2nc[nH]c2n1 | 25
CCCCNc1nc(N)nc2[nH]cnc12 | 12.3
O=c1[nH]c(NCCc2ccc(O)cc2)nc2[nH]cnc12 | > 1000
CCC(=O)Nc1nc2[nH]cnc2c(=O)[nH]1 | 0.56
Nc1nc2[nH]cnc2c(=O)[nH]1 [GUANINE] | 0.002
CCCCNc1nc(O)c2[nH]cnc2n1 | 4
NCCNc1nc(N)nc2[nH]cnc12 | > 1000
CCCNc1nc(N)nc2[nH]cnc12 | 68.3
O=c1[nH]c(NCCCO)nc2[nH]cnc12 | 9.8
O=C(Nc1nc2[nH]cnc2c(=O)[nH]1)N1CCCCC1 | 29.4
Nc1nc2snnc2c(=O)[nH]1 | > 1000
O=c1[nH]c(NCCc2c[nH]cn2)nc2[nH]cnc12 | 300
CN(C)C(=O)Nc1nc2[nH]cnc2c(=O)[nH]1 | 16.4
CN(C)c1nc(N)nc2[nH]cnc12 | 48.3
Nc1nc(NCc2cccnc2)c2nc[nH]c2n1 | > 1000
CC(=O)Nc1nc(=O)c2[nH]cnc2[nH]1 | 1.05
O=C(Nc1nc2[nH]cnc2c(=O)[nH]1)N1CCOCC1 | 1.81
Nc1nc(O)c2ncn(Cc3ccccc3)c2n1 | > 1000
Nc1nc2nsnc2c(=O)[nH]1 | > 1000
Nc1nc(NCC2CC2)c2nc[nH]c2n1 | 68.9

test system: Clostridioides difficile; test: Antibacterial activity against Clostridium difficile ATCC 700057 by broth microdilution method; type: functional

Compound | MIC [µg/mL]
O=c1[nH]c(NC2CCCCC2)nc2[nH]cnc12 | 78 (≈ 0.334 mM)
COc1ccc(CNc2nc(N)nc3[nH]cnc23)cc1 | 313 (≈ 1.16 mM)
Nc1nc(NCc2ccc(F)cc2)c2nc[nH]c2n1 | 313 (≈ 1.21 mM)
Nc1nc(NC2CCC2)c2nc[nH]c2n1 | 1250 (≈ 6.12 mM)
Nc1nc2ncsc2c(=O)[nH]1 | 78 (≈ 0.464 mM)
O=c1[nH]c(NC2CCC2)nc2[nH]cnc12 | 1250 (≈ 6.09 mM)
O=C(NCCN1CCOCC1)Nc1nc2[nH]cnc2c(=O)[nH]1 | 1250 (≈ 4.07 mM)
Nc1nc(NC2CC2)c2nc[nH]c2n1 | 1250 (≈ 6.57 mM)
CCCCNc1nc(N)nc2[nH]cnc12 | 313 (≈ 1.52 mM)
O=c1[nH]c(NCCc2ccc(O)cc2)nc2[nH]cnc12 | 1250 (≈ 4.61 mM)
CCCCNc1nc(O)c2[nH]cnc2n1 | 625 (≈ 3.02 mM)
CCCNc1nc(N)nc2[nH]cnc12 | 625 (≈ 3.25 mM)
Nc1nc2snnc2c(=O)[nH]1 | 156 (≈ 0.922 mM)
O=c1[nH]c(NCCc2c[nH]cn2)nc2[nH]cnc12 | 1250 (≈ 5.1 mM)
CN(C)C(=O)Nc1nc2[nH]cnc2c(=O)[nH]1 | 1250 (≈ 5.63 mM)
Nc1nc(NCc2cccnc2)c2nc[nH]c2n1 | 625 (≈ 2.59 mM)
Nc1nc(NCC2CC2)c2nc[nH]c2n1 | 312 (≈ 1.53 mM)

test system: Clostridioides difficile; test: Antibacterial activity against Clostridium difficile ATCC 700057 up to 5000 ug/ml by broth microdilution method; type: functional, organism-based

Compound | Activity
Nc1nc2scnc2c(=O)[nH]1 | inactive
O=c1[nH]c(NCc2ccccn2)nc2[nH]cnc12 | inactive
NCCCNc1nc(N)nc2[nH]cnc12 | inactive
CN(C)CCNC(=O)Nc1nc2[nH]cnc2c(=O)[nH]1 | inactive
O=C(O)CCCC(=O)Nc1nc2[nH]cnc2c(=O)[nH]1 | inactive
CNc1nc2[nH]cnc2c(=O)[nH]1 | inactive
COCCCNc1nc2[nH]cnc2c(=O)[nH]1 | inactive
CNC(=O)Nc1nc2[nH]cnc2c(=O)[nH]1 | inactive
O=C(NCCO)Nc1nc2[nH]cnc2c(=O)[nH]1 | inactive
Nc1nc2nnccc2c(=O)[nH]1 | inactive
NC(=O)Nc1nc2[nH]cnc2c(=O)[nH]1 | inactive
Cn1cnc2c(O)nc(N)nc21 [9-Methylguanine] | inactive
Nc1nc(NCc2ccccc2)c2[nH]cnc2n1 | inactive
Nc1nc(NCCCO)c2nc[nH]c2n1 | inactive
CCC(=O)Nc1nc2[nH]cnc2c(=O)[nH]1 | inactive
NCCNc1nc(N)nc2[nH]cnc12 | inactive
O=c1[nH]c(NCCCO)nc2[nH]cnc12 | inactive
O=C(Nc1nc2[nH]cnc2c(=O)[nH]1)N1CCCCC1 | inactive
CN(C)c1nc(N)nc2[nH]cnc12 | inactive
CC(=O)Nc1nc(=O)c2[nH]cnc2[nH]1 | inactive
O=C(Nc1nc2[nH]cnc2c(=O)[nH]1)N1CCOCC1 | inactive
Nc1nc(O)c2ncn(Cc3ccccc3)c2n1 | inactive
Nc1nc2nsnc2c(=O)[nH]1 | inactive

test system: not listed separately; test: Binding affinity to Staphylococcus aureus [5'-32P]guaA riboswitch by polyacrylamide gel electrophoresis method

Compound | Kd [µM]
Nc1nc(N)c(N)c(=O)[nH]1 | 0.1

target: not listed separately; test: Binding affinity to Bacillus subtilis guaA riboswitch

Compound | Kd [µM]
Nc1nc2[nH]cnc2c(=O)[nH]1 [GUANINE] | 0.005
